Assay in all cases: MIC broth microdilution, initial screening
What all share (assay type): cell-based

One test has as its system C. albicans (ATCC 64124). Particulars: Candida albicans, read-out: minimum inhibitory concentration (MIC) C. albicans (ATCC 64124). As for the experimental part: (§1) The minimum inhibitory concentrations (MICs) of the tested compounds and control drugs (linezolid, vancomycin, gentamicin (antibiotics) and fluconazole and 5-fluorocytosine (5-FC) (antifungal drugs)) were determined using the broth microdilution method, according to guidelines outlined by the Clinical and Laboratory Standards Institute (CLSI, Clinical and Laboratory Standards Institute, Methods for antimicrobial susceptibility testing of anaerobic bacteria; approved standard, M11-A8. 8th ed., 2012; CLSI, Clinical and Laboratory Standards Institute. M27-A3 Reference Method for Broth Dilution Antifungal Susceptibility Testing of Yeasts; Approved Standard—Third Edition, Wayne, Pa., 2008) against clinically-relevant bacterial (methicillin-resistant Staphylococcus aureus (MRSA), Escherichia coli, and C. difficile strains) and fungal (Candida albicans) strains. S. aureus and E. coli were grown aerobically overnight on tryptone soy agar plates at 37° C. C. difficile was grown anaerobically on brain heart infusion supplemented agar at 37° C. for 48 hours. C. albicans was grown aerobically overnight on yeast peptone dextrose (YPD) agar plate at 35° C. Afterwards, a bacterial solution equivalent to 0.5 McFarland standard was prepared and diluted in cation-adjusted Mueller-Hinton broth (CAMHB) (for S. aureus and E. coli) to achieve a bacterial concentration of about 5×10^5 CFU/mL. C. difficile was diluted in brain heart infusion supplemented broth, supplemented with yeast extract, hemin and vitamin K to achieve a bacterial concentration of about 5×10^5 CFU/mL. C. albicans was diluted in Roswell Park Memorial Institute (RPMI 1640) medium with glutamine and without bicarbonate (GIBCO by Life Technologies, Green Island, N.Y., USA) which was buffered to pH 7.0 with 0.165 M of [3-(N-morpholino) propanesulfonic acid] (MOPS) (DOT Scientific Inc., Burton, Mich., USA) to achieve a fungal concentration of about 1.5×10^3 CFU/mL. Compounds and control drugs were added in the first row of the 96-well plates and serially diluted with the corresponding media containing bacteria. Plates were then incubated aerobically at 37° C. for 18-20 hours (for S. aureus and E. coli). C. difficile was incubated anaerobically at 37° C. for 48 hours. C. albicans was incubated aerobically at 37° C. for 24 hours.
(§2) The minimum inhibitory concentrations (MICs) of the tested compounds and control drugs; linezolid, vancomycin, gentamicin (antibiotics) and fluconazole and 5-fluorocytosine (5-FC) (antifungal drugs) were determined using the broth microdilution method, according to guidelines outlined by the Clinical and Laboratory Standards Institute (CLSI)^1, 2, 3 against clinically-relevant bacterial (methicillin-resistant Staphylococcus aureus (MRSA), Escherichia coli and Clostridium difficile strains) and fungal (Candida albicans) strain. S. aureus and E. coli were grown aerobically overnight on tryptone soy agar plates at 37° C. C. difficile was grown anaerobically on brain heart infusion supplemented agar at 37° C. for 48 hours. C. albicans was grown aerobically overnight on yeast peptone dextrose (YPD) agar plate at 35° C. Afterwards, a bacterial solution equivalent to 0.5 McFarland standard was prepared and diluted in cation-adjusted Mueller-Hinton broth (CAMHB) (for S. aureus and E. coli) to achieve a bacterial concentration of about 5×10^5 CFU/mL. C. difficile was diluted in brain heart infusion supplemented broth, supplemented with yeast extract, hemin and vitamin K to achieve a bacterial concentration of about 5×10^5 CFU/mL. C. albicans was diluted in Roswell Park Memorial Institute (RPMI 1640) medium with glutamine and without bicarbonate (GIBCO by Life Technologies, Green Island, N.Y., USA) which was buffered to pH 7.0 with 0.165 M of [3-(N-morpholino) propanesulfonic acid]

Test [1] has as its system Clostridium difficile (ATCC-BAA1870). To be noted: anaerobic, 48 hours; for MIC: Clostridioides difficile, ATCCBAA1870, 48 h, read-out: minimum inhibitory concentration (MIC) C. difficile (ATCC-BAA1870). How it is done: as §1, §2
Test [2] concerns Escherichia coli BW25113 (wild-type). To be noted: for MIC: Escherichia coli, E. coli BW25113, 18-20 hours, read-out: minimum inhibitory concentration (MIC) E. coli (Wild-type). How it is done: as §1, §2
The subject of test [3] is Escherichia coli JW55031 (TolC mutant). To be noted: for MIC: Escherichia coli, read-out: minimum inhibitory concentration (MIC) E. coli (TolC mutant), E. coli JW55031, 18-20 hours. As for the experimental part:
as §1, §2

Test [4] has as its system Methicillin-resistant Staphylococcus aureus NRS384 (MRSA USA300). How it is done: as §1, §2
The mark [5] stands for this setting: read-out: minimum inhibitory concentration (MIC) S. aureus (MRSA USA300), MRSA NRS384 (USA300), broth microdilution, 18-20 hours.

The values that follow come from patent US11648248B1 (King Abdulaziz University, priority 2022, dated 2023).

≈ marks a conversion by molar mass, not a printed value. Like-named read-outs stand apart in the source and are kept apart here. Some results are limits rather than exact numbers.

Take `COc1ccc(NC(=O)Nc2cccc(-c3ccc(=O)[nH]n3)c2)cc1` [MY33, 1-(4-methoxyphenyl)-3-(3-(6-oxo-1,6-dihydropyridazin-3-yl)phenyl)urea]: the MIC in the test with C. albicans (ATCC 64124) (ATCC64124, 24 h) was more than 128 µg/mL; in test [1] it was more than 128 µg/mL; in test [2], more than 128 µg/mL; in test [3], more than 128 µg/mL; in test [4] (setting [5]) it was more than 128 µg/mL.
For `Cc1cccc(NC(=O)Nc2ccc(Oc3ccc(=O)[nH]n3)cc2)c1` [MY32, 1-(4-((6-oxo-1,6-dihydropyridazin-3-yl)oxy)phenyl)-3-(m-tolyl)urea], the MIC was more than 128 µg/mL with C. albicans (ATCC 64124) (ATCC64124, 24 h); more than 128 µg/mL in test [1]; more than 128 µg/mL in test [2]; more than 128 µg/mL in test [3]; more than 128 µg/mL in test [4] (setting [5]).
As for `Cc1cc(Cl)ccc1NC(=O)Nc1ccc(-c2ccc(=O)[nH]n2)cc1`, the MIC in the test with C. albicans (ATCC 64124) (ATCC64124, 24 h) was more than 128 µg/mL; in test [2] it was more than 128 µg/mL; in test [3], 64 µg/mL (≈ 180 µM); in test [4] (MRSA|NRS384|USA300, read-out: minimum inhibitory concentration (MIC) S. aureus (MRSA USA300), MRSA NRS384 (USA300), broth microdilution, 18-20 hours) it was more than 128 µg/mL. Moreover, the “minimum inhibitory concentration (MIC) C. difficile (ATCC-BAA1870)” value in test [1] came to 64 µg/mL (≈ 180 µM).
Regarding `O=C(Nc1cccc(Nc2ccc(=O)[nH]n2)c1)Nc1ccc(Cl)c(Cl)c1` [MY49, 1-(3,4-dichlorophenyl)-3-(3-((6-oxo-1,6-dihydropyridazin-3-yl)amino)phenyl)urea], the MIC in the test on C. albicans (ATCC 64124) (ATCC64124, 24 h) is more than 128 µg/mL; in test [1], more than 128 µg/mL; in test [2], more than 128 µg/mL; in test [3], more than 128 µg/mL; in test [4] (setting [5]) it was more than 128 µg/mL.
Consider `O=C(Nc1cccc(Nc2ccc(=O)[nH]n2)c1)Nc1ccc(Cl)c(C(F)(F)F)c1` [MY50, 1-(4-chloro-3-(trifluoromethyl)phenyl)-3-(3-((6-oxo-1,6-dihydropyridazin-3-yl)amino)phenyl)urea], for which the MIC with C. albicans (ATCC 64124) (ATCC64124, 24 h) was more than 128 µg/mL; in test [1], more than 128 µg/mL; in test [2], more than 128 µg/mL; in test [3], 128 µg/mL (≈ 302 µM); in test [4] (setting [5]), more than 128 µg/mL.
For Gentamicin [reference compound], the “minimum inhibitory concentration (MIC) E. coli (Wild-type)” value in test [2] (18-20 hours) is 0.5 µg/mL. In test [3] (E. coli JW55031, 18-20 hours), the “minimum inhibitory concentration (MIC) E. coli (TolC mutant)” value was 0.25 µg/mL.
In the case of `Nc1nc(=O)[nH]cc1F` [5-Fluorocytosine, 5-fluorocytosine, reference compound], in the test with C. albicans (ATCC 64124) (ATCC64124, RPMI 1640, 24 hours), the MIC came to 0.25 µg/mL (≈ 1.94 µM).
On the same count and under the same terms, the figure for `OC(Cn1cncn1)(Cn1cncn1)c1ccc(F)cc1F` [Fluconazole, reference compound] is more than 128 µg/mL.
